Reference: patent publication US20050009845A1, “Thienopyrimidine compounds as protein tyrosine kinase inhibitors” (priority 2001, published 2005)
Where a name gives a salt, the structure may show the parent alone.

Tests used:
[1] = target: T1, ErbB-2 (Homo sapiens, UniProt P04626); assay: ErbB-2 substrate phosphorylation enzyme assay (scintillation proximity); assay type: biochemical; conditions: ErbB-2, pIC50 classes
T1 construct: made in house
Method: Compounds of the present invention were tested for EGFR, ErbB-2, and ErbB-4 protein tyrosine kinase inhibitory activity in substrate phosphorylation assays using enzymes purified from a baculovirus expression system. Reagent production and assay methodology were conducted essentially as described (Brignola, P.S., et al, (2002) J. Biol. Chem. v. 277 in press).
The method measures the ability of the isolated enzyme to catalyse the transfer of the γ-phosphate from ATP onto tyrosine residues in a biotinylated synthetic peptide (biotin-Ahx-RAHEEIYHFFFAKKK-amide). Reactions were performed in 96-well polystyrene round-bottom plates in a final volume of 45 μL. Reaction mixtures contained 50 mM MOPS (pH 7.5), 2 mM MnCl2, 10 μM ATP, 0.125 μCi [γ-^33P] ATP per reaction, 2 μM peptide substrate, and I mM dithiothreitol. Reactions were initiated by adding 1 pmol (20 nM) per reaction of the indicated enzyme. The reaction was allowed to proceed for 15 minutes, terminated and quantified using a scintillation proximity assay procedure as described in McDonald, O. B., Antonsson, B., Arkinstal, S., Marshall, C. J., and Wood, E. R. (1999) Analytical Biochemistry, 268, 318-329.
Compounds under analysis were dissolved in Me2SO to 0.5 mM and serially diluted 1 to 3 with Me2SO through eleven columns of a 96 well plate. 1 μL of each concentration was transferred to the corresponding well of the assay plate. This creates a final compound concentration range from 0.00019 to 11.1 μM.
The data for dose responses were plotted as % Control calculated with the data reduction formula 100*(U1−C2)/(C1−C2) versus concentration of compound and fitted to the curve described by: y=((Vmax*x)/(K+x)) where Vmax is the upper asymptote and K is the IC50. Cellular assays: Methylene Blue Growth Inhibition Assay

[2] = test system: BT474 tumor cell line; assay: Methylene blue growth inhibition assay, BT474; assay type: cell-based; conditions: Homo sapiens, BT-474, 72 h; BT474, 3 days, IC50 classes
Method: Human breast (BT474), head and neck (HN5) and gastric tumor (N87) cell lines and human foreskin Fibroblasts (HFF) were cultured in low glucose DMEM (Life Technologies 12320-032) containing 10% fetal bovine serum (FBS) at 37° C. in a humidified 10% CO2, 90% air incubator. The SV40 transformed human mammary epithelial cell line HB4a was transfected with either human H-ras cDNA (HB4a r4.2) or the human c-ErbB2 cDNA (HB4a c5.2). The HB4a clones were cultured in RPMI containing 10% FBS, insulin (5 μg/ml), hydrocortisone (5 μg/ml), supplemented with the selection agent hygromycin B (50μg/ml). Cells were harvested using trypsin/EDTA, counted using a haemocytometer, and plated in […] of the appropriate media, at the following densities, in a 96-well tissue culture plate (Falcon 3075): BT474 10,000 cells/well, HN5 3,000 cells/well, N87 10,000 cells/well, HB4a c5.2 3,000 cells/well, HB4a r4.2 3,000 cells/well, HFF 2500 cells/well. The next day, compounds were diluted in DMEM containing […] gentamicin, at twice the final required concentration, from 10 mM stock solutions in DMSO. […] of these dilutions were added to the […] of media currently on the cell plates. Medium containing 0.6% DMSO was added to control wells. Compounds diluted in DMEM were added to all cell lines, including the HB4a r4.2 and HB4a c5.2 cell lines. The final concentration of DMSO in all wells was 0.3%. Cells were incubated at 37° C., 10% CO2 for 3 days. Medium was removed by aspiration. Cell biomass was estimated by staining cells with 100 μl per well methylene blue (Sigma M9140, 0.5% in 50:50 ethanol:water), and incubation at room temperature for at least 30 minutes. Stain was removed, and the plates rinsed under a gentle stream of water, and air-dried. To release stain from the cells 100 μl of solubilization solution was added (1% N-lauroyl sarcosine, Sodium salt, Sigma L5125, in PBS), and plates were shaken gently for about 30 minutes. Optical density at 620 nm was measured on a microplate reader. Percent inhibition of cell growth was calculated relative to vehicle treated control wells. Concentration of compound that inhibits 50% of cell growth (IC50) was interpolated using nonlinear regression (Levenberg-Marquardt) and the equation, y=Vmax*(1−(x/(K+x)))+Y2, where “K” was equal to the IC50.
Table I illustrates the inhibitory activity of compounds of the present invention as IC50 values in μM against and the BT474 tumor cell line. Using HFF as a representative, human, normal cell line, values for cytotoxicity are supplied as IC50 values in micromolar.

T1 sequence (P04626 691-1255 limits assumed): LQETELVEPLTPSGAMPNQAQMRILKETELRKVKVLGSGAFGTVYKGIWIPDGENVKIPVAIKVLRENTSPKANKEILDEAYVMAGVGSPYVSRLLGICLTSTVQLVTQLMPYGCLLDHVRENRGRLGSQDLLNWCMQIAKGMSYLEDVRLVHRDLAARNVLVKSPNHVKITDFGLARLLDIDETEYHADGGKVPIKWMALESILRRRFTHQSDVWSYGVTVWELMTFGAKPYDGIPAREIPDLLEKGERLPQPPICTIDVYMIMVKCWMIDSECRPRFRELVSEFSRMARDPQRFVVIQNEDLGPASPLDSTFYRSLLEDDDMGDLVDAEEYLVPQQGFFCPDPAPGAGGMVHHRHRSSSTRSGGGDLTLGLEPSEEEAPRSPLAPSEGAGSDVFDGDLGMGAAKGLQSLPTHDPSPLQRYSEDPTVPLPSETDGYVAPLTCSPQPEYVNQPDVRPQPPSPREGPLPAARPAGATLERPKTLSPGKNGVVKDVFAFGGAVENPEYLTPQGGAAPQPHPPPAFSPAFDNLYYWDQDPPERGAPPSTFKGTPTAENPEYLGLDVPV

Structure (SMILES)	IC50 [1]	IC50 [2]	melting point
O=C(NCC#Cc1cc2ncnc(Nc3ccc(OCc4cccc(F)c4)c(Cl)c3)c2s1)c1c(Cl)cccc1Cl [2,6-dichloro-N-{3-[4-({3-chloro-4-[(3-fluorobenzyl)oxy]phenyl}amino)thieno[3,2-d]pyrimidin-6-yl]prop-2-ynyl}benzamide]	31.6 to 100 nM	1500 to 5000 nM	–
Fc1cccc(COc2ccc(Nc3ncnc4cc(C#Cc5ncccn5)sc34)cc2Cl)c1 [Example 77, N-{3-chloro-4-[(3-fluorobenzyl)oxy]phenyl}-6-(pyrimidin-2-ylethynyl)thieno[3,2-d]pyrimidin-4-amine]	–	–	236 to 240 °C
Fc1cccc(COc2ccc(Nc3ncnc4sc(C#Cc5ccccn5)cc34)cc2Cl)c1 [Example 99, N-{3-chloro-4-[(3-fluorobenzyl)oxy]phenyl}-6-(pyridin-2-ylethynyl)thieno[2,3-d]pyrimidin-4-amine]	–	–	180 °C
Fc1cccc(COc2ccc(Nc3ncnc4sc(C#Cc5nccs5)cc34)cc2Cl)c1 [Example 101, N-{3-chloro-4-[(3-fluorobenzyl)oxy]phenyl}-6-(1,3-thiazol-2-ylethynyl)thieno[2,3-d]pyrimidin-4-amine]	–	–	204 °C
CS(=O)(=O)CCNCC#Cc1cc2ncnc(Nc3ccc(OCc4cccc(F)c4)c(Cl)c3)c2s1 [N-{3-Chloro-4-[(3-fluorobenzyl)oxy]phenyl}-6-(3-{[2-(methylsulfonyl)ethyl]amino}prop-1-ynyl)thieno[3,2-d]pyrimidin-4-amine hydrochloride]	< 31.6 nM	< 1500 nM	–
CN1CCN(CC(=O)NCC#Cc2cc3ncnc(Nc4ccc(OCc5cccc(F)c5)c(Cl)c4)c3s2)CC1 [N-{3-[4-({3-Chloro-4-[(3-fluorobenzyl)oxy]phenyl}amino)thieno[3,2-d]pyrimidin-6-yl]prop-2-ynyl}-2-(4-methylpiperazin-1-yl)acetamide]	< 31.6 nM	< 1500 nM	–
CS(=O)(=O)CCNC(=O)NCC#Cc1cc2c(Nc3ccc(OCc4cccc(F)c4)c(Cl)c3)ncnc2s1 [N-{3-[4-({3-chloro-4-[(3-fluorobenzyl)oxy]phenyl}amino)thieno[2,3-d]pyrimidin-6-yl]prop-2-ynyl}-N′-[2-(methylsulfonyl)ethyl]urea]	< 31.6 nM	< 1500 nM	–
O=C(Cc1ccc(Cl)c(Cl)c1)NCC#Cc1cc2ncnc(Nc3ccc(OCc4cccc(F)c4)c(Cl)c3)c2s1 [N-{3-[4-({3-chloro-4-[(3-fluorobenzyl)oxy]phenyl}amino)thieno[3,2-d]pyrimidin-6-yl]prop-2-ynyl}-2-(3,4-dichlorophenyl)acetamide]	> 100 nM	> 5000 nM	–
O=C(CCc1ccc(F)cc1)NCC#Cc1cc2ncnc(Nc3ccc(OCc4cccc(F)c4)c(Cl)c3)c2s1 [N-{3-[4-({3-chloro-4-[(3-fluorobenzyl)oxy]phenyl}amino)thieno[3,2-d]pyrimidin-6-yl]prop-2-ynyl}-3-(4-fluorophenyl)propanamide]	31.6 to 100 nM	1500 to 5000 nM	–

Continued, values first:

IC50 [1]	IC50 [2]	melting point	Structure (SMILES)
–	–	242 °C	Fc1cccc(COc2ccc(Nc3ncnc4cc(C#Cc5ccccn5)sc34)cc2Cl)c1 [Example 78, N-{3-chloro-4-[(3-fluorobenzyl)oxy]phenyl}-6-(pyridin-2-yiethynyl)thieno[3,2-d]pyrimidin-4-amine]
< 31.6 nM	< 1500 nM	–	CN(C)CCNC(=O)NCC#Cc1cc2c(Nc3ccc(OCc4cccc(F)c4)c(Cl)c3)ncnc2s1 [N-{3-[4-({3-chloro-4-[(3-fluorobenzyl)oxy]phenyl}amino)thieno[2,3-d]pyrimidin-6-yl]prop-2-ynyl)N′-[2-(dimethylamino)ethyl]urea]
31.6 to 100 nM	1500 to 5000 nM	–	O=C(NCC#Cc1cc2ncnc(Nc3ccc(OCc4cccc(F)c4)c(Cl)c3)c2s1)c1ccc2[nH]ccc2c1 [N-{3-[4-({3-chloro-4-[(3-fluorobenzyl)oxy]phenyl}amino)thieno[3,2-d]pyrimidin-6-yl]prop-2-ynyl}-1H-indole-5-carboxamide]
31.6 to 100 nM	1500 to 5000 nM	–	O=C(NCC#Cc1cc2ncnc(Nc3ccc(OCc4cccc(F)c4)c(Cl)c3)c2s1)c1csc(-c2ccncc2)n1 [N-{3-[4-({3-chloro-4-[(3-fluorobenzyl)oxy]phenyl}amino)thieno[3,2-d]pyrimidin-6-yl]prop-2-ynyl}-2-pyridin-4-yl-1,3-thiazole-4-carboxamide]
31.6 to 100 nM	1500 to 5000 nM	225 °C	Fc1cccc(COc2ccc(Nc3ncnc4sc(C#Cc5ncccn5)cc34)cc2Cl)c1 [N-{3-chloro-4-[(3-fluorobenzyl)oxy]phenyl)-6-(pyrimidin-2-ylethynyl)thieno[2,3-d]pyrimidin-4-amine]
> 100 nM	> 5000 nM	–	CC(C)CN(CC#Cc1cc2ncnc(Nc3ccc(OCc4cccc(F)c4)c(Cl)c3)c2s1)CC(C)C [N-{3-chloro-4-[(3-fluorobenzyl)oxy]phenyl}-6-[3-(diisobutylamino)prop-1-ynyl]thieno[3,2-d]pyrimidin-4-amine]
